Measured values reported in patent US6716853B2, “Cyclic N-substituted alpha-imino carboxylic acids for selective inhibition of collogenase” (Aventis Pharma Deutschland GmbH, priority 2002, dated 2004).
Where two headings read alike, the source gives them in different places.

Experiments:
Type in all cases: biochemical
[1] = molecular target: T1, human stromelysin (MMP-3) catalytic domain (Homo sapiens, UniProt P08254); assay: Enzymatic activity of the catalytic domain of human stromelysin (MMP 3), fluorogenic substrate; details: Table 2; pH 7.5
T1 construct: catalytic domain of human stromelysin (MMP 3); made in house
T1 sequence (P08254 100-272 limits assumed): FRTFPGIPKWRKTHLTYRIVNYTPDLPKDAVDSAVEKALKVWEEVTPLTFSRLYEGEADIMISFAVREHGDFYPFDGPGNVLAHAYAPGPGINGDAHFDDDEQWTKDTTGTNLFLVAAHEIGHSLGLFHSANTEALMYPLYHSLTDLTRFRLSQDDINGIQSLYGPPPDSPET
Procedure: (§1) Preparation and determination of the enzymatic activity of the catalytic domain of human stromelysin (MMP 3) and neutrophil collagenase (MMP8).
(§2) The two enzymes—stromelysin (MMP-3) and neutrophil collagenase (MMP-8)—were prepared as described by Ye et al. (Biochemistry; 31 (1992) pages 11231-11235). To measure the enzymic activity or the enzyme inhibitory effect, 70 μl of buffer solution and 10 μl of enzyme solution are incubated at physiological pH with 10 μl of a 10% strength (v/v) aqueous dimethyl sulfoxide solution which optionally contains the enzyme inhibitor for 15 minutes. After addition of 10 μl of a 10% strength (v/v) aqueous dimethyl sulfoxide solution which contains 1 mmol/l of the substrate, the enzymic reaction is followed by fluorescence spectroscopy (328 nm (ex)/393 nm(em)).
(§3) The enzymic activity is represented as increase in extinction/minute. The IC50 values listed in table 2 are measured as the inhibitor concentrations leading in each case to 50% inhibition of the enzyme.
(§4) The buffer solution contains 0.05% Brij (Sigma, Deisenhofen, Germany) and 0.1 mol/l Tris/HCl, 0.1 mol/l NaCl, 0.01 mol/l CaCl2 and 0.1 mol/l piperazine-N,N′-bis[2-ethanesulfonic acid] (pH=7.5).
(§5) The enzyme solution contains 5 μg/ml of one of the enzyme domains prepared as described by Ye et al. The substrate solution contains 1 mmol/l of the fluorogenic substrate (7-methoxycoumarin-4-yl)acetyl-Pro-Leu-Gly-Leu-3-(2,4-dinitrophenyl)-L-2,3-diaminopropionyl-Ala-Arg-NH2 (Bachem, Heidelberg, Germany).

[2] = molecular target: T2, human neutrophil collagenase (MMP-8) catalytic domain (Homo sapiens, UniProt P22894); assay: Enzymatic activity of the catalytic domain of human neutrophil collagenase (MMP 8), fluorogenic substrate; details: Table 2; pH 7.5
T2 construct: catalytic domain of human stromelysin (MMP 3) and neutrophil collagenase (MMP8); made in house
T2 sequence (P22894 100-262 limits assumed): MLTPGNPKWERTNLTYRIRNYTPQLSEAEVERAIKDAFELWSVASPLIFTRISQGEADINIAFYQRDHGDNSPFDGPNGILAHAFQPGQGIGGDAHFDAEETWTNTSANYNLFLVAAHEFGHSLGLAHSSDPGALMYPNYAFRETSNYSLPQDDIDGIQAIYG
Procedure: as §1, §2, §3, §4, §5

[3] = molecular target: T3, human collagenase 3 (MMP-13) catalytic domain (Homo sapiens, UniProt P45452); assay: Enzymatic activity of the catalytic domain of human collagenase 3 (MMP-13), fluorogenic substrate
T3 construct: catalytic domain of human collagenase 3 (MMP-13); purchased INVITEK, Berlin 30 100 803
Procedure: Determination of the enzymatic activity of the catalytic domain of human collagenase 3 (MMP-13).
Activation of the proenzyme:
2 parts by volume of proenzyme are incubated with 1 part by volume of APMA solution at 37° C. for 1.5 hours. The APMA solution is prepared from a 10 mmol/L
p-aminophenylmercuric acetate solution in […] by dilution with 3 parts by volume of Tris/HCl buffer pH7.5 (see below). The pH is adjusted to between 7.0 and 7.5 by adding 1 mmol/L HCl. After activation of the enzyme it is diluted with the Tris/HCl buffer to a concentration of 1.67 μg/mL.
To measure the enzymic activity, 10 μL of enzyme solution are incubated with 10 μL of a 3% strength (v/v) buffered dimethyl sulfoxide solution (reaction 1) for 15 minutes. To measure the enzyme inhibitory activity, 10 μL of enzyme solution are incubated with 10 μL of a 3% strength (v/v) buffered dimethyl sulfoxide solution which contains the enzyme inhibitor (reaction 2).
The enzymic reaction both in reaction 1 and in reaction 2 is followed, after addition of 10 μL of a 3% strength (v/v) aqueous dimethyl sulfoxide solution which contains 0.75 mmol/L of the substrate, by fluorescence spectroscopy (328 nm (extinction)/393 nm(emission)).
The enzymic activity is represented as increase in extinction/minute.
The inhibitory effect is calculated as percentage inhibition by the following formula:
% inhibition=100−[(increase in extinction/minute in reaction 2)/(increase in extinction/minute in reaction 1)×100].
The IC50, i.e. the inhibitor concentration necessary for 50% inhibition of enzymic activity, is found by plotting a graph of the percentage inhibitions at various inhibitor concentrations.
The buffer solution contains 0.05% Brij (Sigma, Deisenhofen, Germany) and 0.1 mol/L Tris/HCl, 0.1 mol/L NaCl, 0.01 mol/L CaCl2 (pH=7.5).
The enzyme solution contains 1.67 μg/mL of the enzyme domain.
The substrate solution contains 0.75 mmol/L of the fluorogenic substrate (7-methoxycoumarin-4-yl)acetyl-Pro-Leu-Gly-Leu-3-(2,4-dinitrophenyl)-L-2,3-diaminopropionyl-Ala-Arg-NH2 (Bachem, Heidelberg, Germany).

[4] = Table 2, pH 7.5, read-out: MMP 13 IC50
[5] = Table 3, comparative examples, determination as described above, read-out: MMP 13

SMILES | IC50 [1] | IC50 [2] | IC50 [3, 4] | IC50 [3, 5]
Cn1cnc2c1C[C@H](C(=O)O)N(S(=O)(=O)c1ccc(-c3ccc(NC(=O)OCC4CC4)cc3)cc1)C2 [Example 10] | > 10000 nM | 700 nM | 20 nM | 
CC(C)COC(=O)Nc1ccc(-c2ccc(S(=O)(=O)N3Cc4ncn(C)c4C[C@@H]3C(=O)O)cc2)cc1 [Example 9] |  | 200 nM | 60 nM | 
O=C(O)[C@H]1Cc2ccccc2CN1S(=O)(=O)c1ccc(-c2ccccc2)cc1 [Example 34, reference compound] |  |  |  | 50 nM
Cn1cnc2c1C[C@H](C(=O)O)N(S(=O)(=O)c1ccc(-c3ccc(NC(=O)OCc4ccccc4)cc3)cc1)C2 [Example 7] | > 10000 nM | 1000 nM | 60 nM | 
CC(C)OC(=O)Nc1ccc(-c2ccc(S(=O)(=O)N3Cc4ncn(C)c4C[C@@H]3C(=O)O)cc2)cc1 [Example 6] |  | 4000 nM | 80 nM | 
Cn1cnc2c1C[C@H](C(=O)O)N(S(=O)(=O)c1ccc(-c3ccc(NC(=O)OCC(C)(C)C)cc3)cc1)C2 [Example 8] | > 10000 nM | 5000 nM | 70 nM | 

Next, values leading:

IC50 [1] | IC50 [2] | IC50 [3, 4] | IC50 [3, 5] | SMILES
3000 nM | 6000 nM | 30 nM |  | CC(C)OC(=O)Nc1ccc(-c2ccc(S(=O)(=O)N3Cc4ccccc4C[C@@H]3C(=O)O)cc2)cc1 [Example 2, 2-(4′-Isopropoxycarbonylaminobiphenyl-4-sulfonyl)-1,2,3,4-tetrahydroisocquinoline-3-(R)-carboxylic acid]
3000 nM | 2300 nM | 40 nM |  | CCOC(=O)Nc1ccc(-c2ccc(S(=O)(=O)N3Cc4ccccc4C[C@@H]3C(=O)O)cc2)cc1 [Example 1]
 |  |  | 2.9 nM | CN(C)c1ccc(-c2ccc(S(=O)(=O)N3Cc4ccccc4C[C@@H]3C(=O)O)cc2)cc1 [Example 39, reference compound]
2000 nM | 3000 nM | 20 nM |  | CC(C)COC(=O)Nc1ccc(-c2ccc(S(=O)(=O)N3Cc4ccccc4C[C@@H]3C(=O)O)cc2)cc1 [Example 4]
> 10000 nM | 2000 nM | 70 nM |  | CCCCCCOC(=O)Nc1ccc(-c2ccc(S(=O)(=O)N3Cc4ccccc4C[C@@H]3C(=O)O)cc2)cc1 [Example 3]
3000 nM | 4000 nM | 20 nM |  | O=C(Nc1ccc(-c2ccc(S(=O)(=O)N3Cc4ccccc4C[C@@H]3C(=O)O)cc2)cc1)OCC1CC1 [Example 5]
 |  |  | 30 nM | O=C(O)[C@H]1Cc2ccccc2CN1S(=O)(=O)c1ccc(-c2ccc(Cl)cc2)cc1 [Example 35, reference compound]
